Results: US6156700A, “3-(1,2-Benzisothiazol- and isoxazol-5-yl)-2,4(1H,3H)-pyrimidinedione or thione and 3-(1,2-benzisothiazol- and isoxazol-5-yl)-4(3H)-pyrimidinone or thione herbicidal agents” (American Cyanmid Company, priority 1998, dated 2000)
Several values for one entry are separate records, joined by “and”; a condition that tells them apart may be missing. Identical values can stand only once.

Assays:
GLXMA [1] = assay: Postemergence herbicidal evaluation; format: in vivo
GLXMA [2] = assay: Preemergence herbicidal evaluation; format: in vivo
TRZAWR [3] = assay: Postemergence herbicidal evaluation; format: in vivo
CASOB = assay: Postemergence herbicidal evaluation; format: in vivo
Soybean, Glycine max [4] = assay: Preemergence herbicidal evaluation, GLXMA; format: in vivo, (L.) Merr.; details: 0.2500 kg/ha
Excerpt: (§1) Results of herbicide evaluation are expressed on a rating scale (0-9). The scale is based upon a visual observation of plant stand, vigor, malformation, size, chlorosis and overall plant appearance as compared with a control.
The preemergence herbicidal activity of the test compounds of the present invention is exemplified by the following tests in which the seeds of a variety of monocotyledonous and dicotyledonous plants are separately mixed with potting soil and planted on top of approximately one inch of soil in separate pint cups. After planting, the cups are sprayed with the selected aqueous acetone solution containing test compound in sufficient quantity to provide the equivalent of about 0.0156 to 0.500 kg per hectare of test compound per cup. The treated cups are then placed on greenhouse benches, watered and cared for in accordance with conventional greenhouse procedures. From four to five weeks after treatment, the tests are terminated and each cup is examined and rated according to the rating system provided in Example 185.
The compounds evaluated are reported by compound number given in Example 185.

ZEAMX = assay: Postemergence herbicidal evaluation; format: in vivo
[5] = tested on: Soybean, Williams, Glycine max; assay: Postemergence herbicidal evaluation, GLXMAW; format: in vivo, (L.) Merr. cv Williams
Procedure, shortened: (§2)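 Foliar spray, 40 psi, ~0.0157–0.500 kg a.i./ha, vehicle acetone/water 1:1 with 0.5% TWEEN 20, on seedlings grown ~2 weeks. Readout: 0–9 visual injury score relative to control at 4–5 weeks.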

Soybean, Glycine max [6] = assay: Postemergence herbicidal evaluation, GLXMA; format: in vivo, (L.) Merr.; details: 0.2500 kg/ha
Method: In the tests, seedling plants are grown in jiffy flats for about two weeks. The test compounds are dispersed in 50/50 acetone/water mixtures containing 0.5% TWEEN®20, a polyoxyethylene sorbitan monolaurate surfactant of Atlas Chemical Industries, in sufficient quantities to provide the equivalent of about 0.0157 kg to 0.500 kg per hectare of active compound when applied to the plants through a spray nozzle operating at 40 psi for a predetermined time. After spraying, the plants are placed on greenhouse benches and are cared for in accordance with conventional greenhouse procedures. From four to five weeks after treatment, the seedling plants are examined and rated according to the rating system set forth below. Where more than one test is involved for a given compound, the data are averaged.
as §1

[7] = tested on: Morningglory, Ivyleaf, Ipomoea hederacea; assay: Postemergence herbicidal evaluation, IPOHE; format: in vivo, (L.) Jacq.; details: 0.0630 kg/ha
Procedure, shortened: as §2

ORYSAT = assay: Preemergence herbicidal evaluation; format: in vivo, Oryza sativa; set-up: scale not given here
GALAP [8] = assay: Postemergence herbicidal evaluation; format: in vivo
[9] = tested on: Lambsquarters, Common, Chenopodium album; assay: Postemergence herbicidal evaluation, CHEAL; format: in vivo, L.
Procedure, shortened: as §2

GALAP [10] = assay: Preemergence herbicidal evaluation; format: in vivo; set-up: scale not given here
IPOSS = assay: Preemergence herbicidal evaluation; format: in vivo; set-up: scale not given here
TRZAWR [11] = assay: Preemergence herbicidal evaluation; format: in vivo; set-up: scale not given here
AMBEL = assay: Preemergence herbicidal evaluation; format: in vivo; set-up: scale not given here
ABUTH = assay: Preemergence herbicidal evaluation; format: in vivo; set-up: scale not given here
ECHCG = assay: Preemergence herbicidal evaluation; format: in vivo; set-up: scale not given here
[12] = tested on: Morningglory, Ivyleaf, Ipomoea hederacea; assay: Preemergence herbicidal evaluation, IPOHE; format: in vivo, (L.) Jacq.; details: 0.2500 kg/ha
Procedure, shortened: (§3)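 Values are 0–9 visual ratings of stand, vigor, malformation, size, chlorosis and overall appearance relative to a control, scored 4 to 5 weeks after treatment. Test compound in aqueous acetone was sprayed onto soil right after seeding, at rates equivalent to about 0.0156–0.500 kg per hectare.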

[13] = tested on: Soybean, Williams, Glycine max; assay: Preemergence herbicidal evaluation, GLXMAW; format: in vivo, (L.) Merr. cv Williams; details: 0.2500 kg/ha
Procedure, shortened: as §3

SMILES: Cc1nsc2ccc(-n3c(=O)cc(C(F)(F)F)n(C)c3=O)cc12 [Compound 6, 1-Methyl-3-(3-methyl-1,2-benzisothiazol-5-yl)-6-(trifluoromethyl)-2,4(1H,3H)-pyrimidinedione]
- herbicidal effect rating (GLXMA [1]; 0.0157-0.0160 kg/ha): 2.5 and 4.0
- herbicidal effect rating (GLXMA [1]; 0.0313-0.0320 kg/ha): 5.0 and 4.0
- herbicidal effect rating (GLXMA [1]; 0.0625-0.0640 kg/ha): 4.0
- herbicidal effect rating (GLXMA [1]; 0.1250 kg/ha): 6.0
- herbicidal effect rating (GLXMA [1]; 0.2500 kg/ha): 6.0
- herbicidal effect rating (GLXMA [1]; 0.5000 kg/ha): 7.0
- herbicidal effect rating (GLXMA [2]; 0.0156-0.0160 kg/ha): 2.0
- herbicidal effect rating (GLXMA [2]; 0.0313-0.0320 kg/ha): 2.0
- herbicidal effect rating (GLXMA [2]; 0.0620-0.0630 kg/ha): 4.0
- herbicidal effect rating (GLXMA [2]; 0.1250 kg/ha): 7.0
- herbicidal effect rating (GLXMA [2]; 0.2500 kg/ha): 9.0
- herbicidal effect rating (GLXMA [2]; 0.5000 kg/ha): 9.0
- herbicidal effect rating (TRZAWR [3]; 0.0625-0.0640 kg/ha): 3.0 and 1.5 and 2.0
- herbicidal effect rating (TRZAWR [3]; 0.1250 kg/ha): 2.5
- herbicidal effect rating (TRZAWR [3]; 0.2500 kg/ha): 5.0
- herbicidal effect rating (TRZAWR [3]; 0.5000 kg/ha): 6.0
- herbicidal effect rating (CASOB; 0.0157-0.0160 kg/ha): 0.0
- herbicidal effect rating (CASOB; 0.0625-0.0640 kg/ha): 2.5 and 4.0
- herbicidal effect rating (CASOB; 0.1250 kg/ha): 7.0
- herbicidal effect rating (CASOB; 0.2500 kg/ha): 8.0
- herbicidal effect rating (CASOB; 0.5000 kg/ha): 7.0
- herbicide rating (0-9) (Soybean, Glycine max [4]): 9.0
- herbicidal effect rating (ZEAMX; 0.0157-0.0160 kg/ha): 3.5 and 4.0 and 2.0
- herbicidal effect rating (ZEAMX; 0.0313-0.0320 kg/ha): 3.8 and 4.3 and 3.5
- herbicidal effect rating (ZEAMX; 0.0625-0.0640 kg/ha): 5.0 and 4.5 and 3.5
- herbicidal effect rating (ZEAMX; 0.1250 kg/ha): 3.5
- herbicidal effect rating (ZEAMX; 0.2500 kg/ha): 3.5
- herbicidal effect rating (ZEAMX; 0.5000 kg/ha): 3.0
- herbicide rating (0-9) ([5]; 0.0630 kg/ha): 4.8
- herbicide rating (0-9) ([5]; 0.2500 kg/ha): 7.0
- herbicide rating (0-9) (Soybean, Glycine max [6]): 6.0
- herbicide rating (0-9) [7]: 5.0
- herbicidal effect rating (ORYSAT; 0.0156-0.0160 kg/ha): 2.8 and 4.0
- herbicidal effect rating (ORYSAT; 0.0313-0.0320 kg/ha): 4.4 and 7.0
- herbicidal effect rating (ORYSAT; 0.0620-0.0630 kg/ha): 7.0
- herbicidal effect rating (ORYSAT; 0.1250 kg/ha): 8.0
- herbicidal effect rating (ORYSAT; 0.2500 kg/ha): 8.0
- herbicidal effect rating (ORYSAT; 0.5000 kg/ha): 9.0
- herbicidal effect rating (GALAP [8]; 0.0625-0.0640 kg/ha): 9.0 and 5.0
- herbicidal effect rating (GALAP [8]; 0.1250 kg/ha): 9.0
- herbicidal effect rating (GALAP [8]; 0.2500 kg/ha): 9.0
- herbicidal effect rating (GALAP [8]; 0.5000 kg/ha): 9.0
- herbicide rating (0-9) ([9]; 0.0630 kg/ha): 7.0
- herbicide rating (0-9) ([9]; 0.2500 kg/ha): 9.0
- herbicidal effect rating (GALAP [10]; 0.0156-0.0160 kg/ha): 4.8 and 8.5
- herbicidal effect rating (GALAP [10]; 0.0313-0.0320 kg/ha): 5.3 and 8.5 and 9.0
- herbicidal effect rating (GALAP [10]; 0.0620-0.0630 kg/ha): 9.0
- herbicidal effect rating (GALAP [10]; 0.1250 kg/ha): 9.0
- herbicidal effect rating (GALAP [10]; 0.2500 kg/ha): 9.0
- herbicidal effect rating (GALAP [10]; 0.5000 kg/ha): 9.0
- herbicidal effect rating (IPOSS; 0.0156-0.0160 kg/ha): 7.5
- herbicidal effect rating (IPOSS; 0.0313-0.0320 kg/ha): 7.5 and 7.0
- herbicidal effect rating (IPOSS; 0.0620-0.0630 kg/ha): 7.0
- herbicidal effect rating (IPOSS; 0.1250 kg/ha): 9.0
- herbicidal effect rating (IPOSS; 0.2500 kg/ha): 9.0
- herbicidal effect rating (IPOSS; 0.5000 kg/ha): 9.0
- herbicidal effect rating (TRZAWR [11]; 0.0156-0.0160 kg/ha): 3.0 and 3.5
- herbicidal effect rating (TRZAWR [11]; 0.0313-0.0320 kg/ha): 5.6 and 6.5 and 6.3
- herbicidal effect rating (TRZAWR [11]; 0.0620-0.0630 kg/ha): 7.0 and 8.3
- herbicidal effect rating (TRZAWR [11]; 0.1250 kg/ha): 8.7
- herbicidal effect rating (TRZAWR [11]; 0.2500 kg/ha): 8.0
- herbicidal effect rating (TRZAWR [11]; 0.5000 kg/ha): 9.0
- herbicidal effect rating (AMBEL; 0.0313-0.0320 kg/ha): 7.4 and 9.0 and 4.5
- herbicidal effect rating (AMBEL; 0.0620-0.0630 kg/ha): 9.0 and 6.0
- herbicidal effect rating (AMBEL; 0.1250 kg/ha): 7.0
- herbicidal effect rating (AMBEL; 0.2500 kg/ha): 9.0
- herbicidal effect rating (AMBEL; 0.5000 kg/ha): 9.0
- herbicidal effect rating (ABUTH; 0.0313-0.0320 kg/ha): 9.0 and 4.5
- herbicidal effect rating (ABUTH; 0.0620-0.0630 kg/ha): 9.0
- herbicidal effect rating (ABUTH; 0.1250 kg/ha): 9.0
- herbicidal effect rating (ABUTH; 0.2500 kg/ha): 9.0
- herbicidal effect rating (ABUTH; 0.5000 kg/ha): 9.0
- herbicidal effect rating (ECHCG; 0.0313-0.0320 kg/ha): 5.6 and 8.0 and 4.5
- herbicidal effect rating (ECHCG; 0.0620-0.0630 kg/ha): 9.0 and 5.5
- herbicidal effect rating (ECHCG; 0.1250 kg/ha): 6.0
- herbicidal effect rating (ECHCG; 0.2500 kg/ha): 9.0
- herbicidal effect rating (ECHCG; 0.5000 kg/ha): 9.0

SMILES: COC(=O)COc1ccc(C)cc1-c1nsc2ccc(-n3c(=O)cc(C(F)(F)F)n(C)c3=O)cc12 [Compound 2, Methyl {{2-{5-[3,6-dihydro-3-methyl-4-(trifluoromethyl) -2,6-dioxo-1(2H)-pyrimidinyl]-1,2-benzisothiazol-3-yl]-p-tolyl}oxy}acetate]
- herbicide rating (0-9) [12]: 9.0
- herbicide rating (0-9) [13]: 8.5
- herbicide rating (0-9) (Soybean, Glycine max [4]): 7.0
- herbicide rating (0-9) ([5]; 0.0630 kg/ha): 8.8
- herbicide rating (0-9) (Soybean, Glycine max [6]): 9.0
- herbicide rating (0-9) [7]: 9.0
- herbicide rating (0-9) ([9]; 0.0630 kg/ha): 9.0
- herbicide rating (0-9) ([9]; 0.2500 kg/ha): 9.0

SMILES: COC(=O)C(C)Oc1ccc(C)cc1-c1nsc2ccc(-n3c(=O)cc(C(F)(F)F)n(C)c3=O)cc12 (stereo not drawn) [Compound 3]
- herbicide rating (0-9) [12]: 9.0
- herbicide rating (0-9) [13]: 5.0
- herbicide rating (0-9) (Soybean, Glycine max [4]): 4.0
- herbicide rating (0-9) ([5]; 0.0630 kg/ha): 7.0
- herbicide rating (0-9) (Soybean, Glycine max [6]): 7.5
- herbicide rating (0-9) [7]: 9.0
- herbicide rating (0-9) ([9]; 0.0630 kg/ha): 9.0
- herbicide rating (0-9) ([9]; 0.2500 kg/ha): 9.0
